Reference: BindingDB's records for doi:10.1021/jm500892k (Shandong University, 2014)

Key:
[1] = Inhibition of Influenza A virus A/chicken/shandong/S2/02(H9N2) Neuraminidase
[2] = Inhibition of Influenza A virus A/duck/china/1206/2012(H5N1) Neuraminidase
[3] = Inhibition of Influenza A virus A/duck/china/QJ/01(H5N1) Neuraminidase

Row | SMILES | IC50 [1] | IC50 [2] | IC50 [3]
1 | CCC(CC)CN[C@H]1CC(C(=O)O)=C[C@@H](OC(CC)CC)[C@@H]1NC(C)=O | 70 nM | 43 nM | 540 nM
2 | CCC(CC)O[C@@H]1C=C(C(=O)O)C[C@H](NCc2ccc(-c3ccccc3)cc2-c2ccccc2)[C@H]1NC(C)=O | 38 nM | 39 nM | 58 nM
3 | CCCN(C(=N)N)[C@H]1CC(C(=O)O)=C[C@@H](OC(CC)CC)[C@@H]1NC(C)=O | > 5000 nM | 1140 nM | 3900 nM
4 | CCC(CC)O[C@@H]1C=C(C(=O)O)C[C@H](NCc2ccccc2OCc2ccco2)[C@H]1NC(C)=O | 720 nM | > 200 nM | > 200 nM
5 | CCC(CC)O[C@@H]1C=C(C(=O)NO)C[C@H](NC(=N)N)[C@H]1NC(C)=O | 160 nM | > 200 nM | > 200 nM
6 | CCCCN[C@H]1CC(C(=O)O)=C[C@@H](OC(CC)CC)[C@@H]1NC(C)=O | 630 nM | 56 nM | 76 nM
7 | CCC(CC)O[C@@H]1C=C(C(=O)O)C[C@H](NCCCN)[C@H]1NC(C)=O | 1050 nM | > 200 nM | > 200 nM
8 | CCC(CC)O[C@@H]1C=C(C(=O)O)C[C@H](NCCCc2ccccc2)[C@H]1NC(C)=O | > 5000 nM | 81 nM | 190 nM
9 | CCC(CC)O[C@@H]1C=C(C(=O)O)C[C@H](N(CCCc2ccccc2)C(=N)N)[C@H]1NC(C)=O | > 5000 nM | 1780 nM | > 3000 nM
10 | CCC(CC)O[C@@H]1C=C(C(=O)NO)C[C@H](N)[C@H]1NC(C)=O | 120 nM | > 200 nM | 180 nM
11 | CCC(CC)O[C@@H]1C=C(C(=O)O)C[C@H](NCc2ccc(-c3ccccc3)cc2)[C@H]1NC(C)=O | 580 nM | 3.8 nM | 6.7 nM
12 | CCC(CC)O[C@@H]1C=C(C(=O)O)C[C@H](NC/C=C/c2ccccc2)[C@H]1NC(C)=O | 3230 nM | 48 nM | 106 nM
13 | CCC(CC)O[C@@H]1C=C(C(=O)O)C[C@H](N(Cc2cccs2)C(=N)N)[C@H]1NC(C)=O | 350 nM | 88 nM | 190 nM
14 | CCC(CC)O[C@@H]1C=C(C(=O)O)C[C@H](N(CCC(C)C)C(=N)N)[C@H]1NC(C)=O | 4880 nM | 2540 nM | > 3000 nM
15 | CCC(CC)O[C@@H]1C=C(C(=O)O)C[C@H](NCc2cccs2)[C@H]1NC(C)=O | 99 nM | 53 nM | 54 nM
16 | CCC(CC)O[C@@H]1C=C(C(=O)O)C[C@H](N(Cc2ccccc2OC)C(=N)N)[C@H]1NC(C)=O | 360 nM | 250 nM | 
17 | CCC(CC)O[C@@H]1C=C(C(=O)O)C[C@H](NCC(C)C)[C@H]1NC(C)=O | 1750 nM | 83 nM | 99 nM

Row | SMILES | IC50 [1] | IC50 [2] | IC50 [3]
18 | CCC(CC)O[C@@H]1C=C(C(=O)O)C[C@H](N(CC(C)C)C(=N)N)[C@H]1NC(C)=O | > 5000 nM | 390 nM | 450 nM
19 | CCC(CC)CN(C(=N)N)[C@H]1CC(C(=O)O)=C[C@@H](OC(CC)CC)[C@@H]1NC(C)=O | > 5000 nM | > 3000 nM | > 3000 nM
20 | CCC(CC)O[C@@H]1C=C(C(=O)O)C[C@H](N(Cc2ccccc2)C(=N)N)[C@H]1NC(C)=O |  | 3020 nM | > 3000 nM
21 | CCC(CC)O[C@@H]1C=C(C(=O)O)C[C@H](NCc2ccccc2F)[C@H]1NC(C)=O | 650 nM | 90 nM | 108 nM
22 | CCC(CC)O[C@@H]1C=C(C(=O)O)C[C@H](N(Cc2ccc(C(C)C)cc2)C(=N)N)[C@H]1NC(C)=O | 2160 nM | 1560 nM | 3200 nM
23 | CCC(CC)O[C@@H]1C=C(C(=O)O)C[C@H](NCc2ccccc2)[C@H]1NC(C)=O | 420 nM | 19 nM | 80 nM
24 | CCC(CC)O[C@@H]1C=C(C(=O)O)C[C@H](NCc2ccccc2Br)[C@H]1NC(C)=O | 42 nM | 38 nM | 56 nM
25 | CCC(CC)O[C@@H]1C=C(C(=O)O)C[C@H](N(Cc2ccc(-c3ccccc3)cc2)C(=N)N)[C@H]1NC(C)=O | 370 nM | 270 nM | 430 nM
26 | CCC(CC)O[C@@H]1C=C(C(=O)O)C[C@H](NCc2ccccc2OC)[C@H]1NC(C)=O | 250 nM | 117 nM | > 2000 nM
27 | C=CCOc1ccccc1CN[C@H]1CC(C(=O)O)=C[C@@H](OC(CC)CC)[C@@H]1NC(C)=O | 1910 nM | > 200 nM | > 200 nM
28 | CCC(CC)O[C@@H]1C=C(C(=O)O)C[C@H](NCc2ccc(-c3ccccc3)cc2Cl)[C@H]1NC(C)=O | 340 nM | 27 nM | 44 nM
29 | CCCCN(C(=N)N)[C@H]1CC(C(=O)O)=C[C@@H](OC(CC)CC)[C@@H]1NC(C)=O | > 1230 nM | > 3000 nM | > 3000 nM
30 | CCC(CC)O[C@@H]1C=C(C(=O)O)C[C@H](NC(=N)N)[C@H]1NC(C)=O [Guanidino-Oseltamivir Carboxylicacid] | 11 nM | 2.3 nM | 2.6 nM
31 | CCC(CC)O[C@@H]1C=C(C(=O)O)C[C@H](NCc2ccccc2Cl)[C@H]1NC(C)=O | > 430 nM | 14 nM | 29 nM
32 | CCCCCN(C(=N)N)[C@H]1CC(C(=O)O)=C[C@@H](OC(CC)CC)[C@@H]1NC(C)=O | > 5000 nM | 3620 nM | > 3000 nM
33 | CCC(CC)O[C@@H]1C=C(C(=O)O)C[C@H](NCc2ccccc2O)[C@H]1NC(C)=O | 5000 nM | 63 nM | 194 nM
34 | CCC(CC)O[C@@H]1C=C(C(=O)O)C[C@H](NCc2ccc(-c3cccs3)cc2)[C@H]1NC(C)=O | 210 nM | 4.3 nM | 14 nM
